Experimental data as given in US4939168A, “Discodermolide compounds, compositions containing same and methods of preparation and use” (Harbor Branch Oceanographics Institution, Inc., priority 1989, dated 1990).
Values after ≈ are worked out from the molar mass of the structure shown.

Columns and labels:
Type in all cases: cell-based
[1] = system: murine P388 leukemia cells; experiment: P388 cytotoxicity (antiproliferative effect, MTT); settings: Mus musculus, 48-h exposure
Description: The crude ethanolic extract of the sponge and the pure compound I were tested for toxicity against murine P388 leukemia cells. P388 cells obtained from Dr. J. Mayo, National Cancer Institute, Bethesda, MD, were maintained in Roswell Park Memorial Institute (RPMI) medium 1640 supplemented with 10% horse serum. All cell lines were cultured in plastic tissue culture flasks and kept in an incubator at 37° C. in humidified air containing 5% CO2. Antibiotic-free stock cultures of P388 cells were subcultured to 10^5 cells/ml by dilution in fresh growth medium at 2 to 3 day intervals. The mean generation time of primary cultures was 14 to 17 hr.
To assess the antiproliferative effects of agents against P388 cells, 200 μl cultures (96-well tissue culture plates, Nunc, Denmark) were established at 1×10^5 cells/ml in drug-free medium or medium containing the crude extract at a final dilution of 1:500 or discodermolide at various concentrations. Solvent for all dilutions was methanol, which was removed from plates under vacuum. All experimental cultures were initiated in medium containing Gentamycin sulfate (50 μg/ml; Schering Corporation, Kenilworth, NJ). After 48-h exposures, P388 cells were enumerated using 3-[4,5-Dimethylthiazol-2-yl]-2,5-diphenyltetrazolium bromide (MTT) as described below (M. C. Alley, et al., Cancer Res. 48:589, 1988).
To quantitate the effects on cell proliferation, 75 μl of warm growth medium containing 5 mg/ml MTT was added to each well and cultures were returned to the incubator for 90 minutes. To spectrophotometrically quantitate formation of reduced formazan, plates were centrifuged (900×g, 5 minutes), culture fluids removed by aspiration, and 200 μl of acidified isopropanol (2 ml concentrated HCl/liter isopropanol) added per well. The absorbance of the resulting solutions were measured at 570 nm with a plate reader (MR700 Microplate Reader, Dynatech, Laboratories, Chantilly, Va.). […] A linear relationship between P388 cell number and formazan production was found over the range of cell densities observed in these experiments.

[2] = system: human peripheral blood lymphocytes (PBL); experiment: PHA mitogenesis of human lymphocytes (mitogen stimulation assay); settings: for PHA (counts per minute of incorporated 3H-thymidine): PHA 10.0 μg/ml, control 412200
Description: (§1) The pure compound discodermolide I, was tested for immunosuppressive effects on the MLR and LCV assays using murine splenocytes and in the human MLR and mitogen stimulation assays, using human peripheral blood lymphocytes (PBL). Cellular proliferation was determined using incorporation of ^3 H-thymidine.
^2 Counts per minute of incorporated ^3 Hthymidine. Conc. of PHA

[3] = viability of human PBL in the Con A and PHA stimulation assays; settings: peripheral blood lymphocytes, 50 and 25 μg/ml
Description: as §1

[4] = viability of cells in the human mixed lymphocyte reaction, M.T.T. metabolism
Description: as §1
^2 % Viable cells as measured by M.T.T. metabolism

[5] = system: human peripheral blood lymphocytes (PBL); experiment: human mixed lymphocyte reaction (MLR), 3H-thymidine incorporation; settings: for CPM (counts per minute of incorporated 3H-thymidine): control 48064
Description: as §1
^1 Counts per minute of incorporate ^3 Hthymidine

[6] = system: murine splenocytes; experiment: murine two-way mixed lymphocyte reaction (MLR), 3H-thymidine incorporation
Description: as §1

[7] = system: human peripheral blood lymphocytes (PBL); experiment: Con A mitogenesis of human lymphocytes (mitogen stimulation assay); settings: for Con A (counts per minute of incorporated 3H-thymidine): Con A 10.0 μg/ml, control 262000
Description: as §1
^1 Counts per minute of incorporated ^3 Hthymidine. Conc. of Con

[8] = system: murine splenocytes; experiment: murine lymphocyte viability assay (LCV), 3H-thymidine incorporation
Description: as §1

[9] = as above; settings: mouse, splenocytes, read-out: % LCV Control (percent of the control LCV response)
Description: as §1

[10] = 50 and 25 μg/ml, mitogen 10 μg/ml

C=C/C=C\C(C)C(OC(N)=O)C(C)C(O)C(C)C/C(C)=C\C(C)C(O)C(C)/C=C\C(O)CC1OC(=O)C(C)C(O)C1C (single isomer, unassigned) [Discodermolide, discodermolide]
inhibition at 0.125 µg/mL ([1]; 0.125 μg/ml): 2% | inhibition at 0.25 µg/mL ([1]; 0.25 μg/ml): 12% | inhibition at 0.5 µg/mL ([1]; 0.5 μg/ml): 49% | inhibition at 1 µg/mL ([1]; 1.0 μg/ml): 75% | inhibition at 2.5 µg/mL ([1]; 2.5 μg/ml): 87% | inhibition at 5 µg/mL ([1]; 5 μg/ml): 88% | inhibition at 10 µg/mL ([1]; 10 μg/ml): 90% | inhibition at 20 µg/mL ([1]; 20 μg/ml): 92% | IC50 ([1]; read-out: IC50 (concentration resulting in 50% inhibition of proliferation)): 0.5 µg/mL (≈ 0.842 µM) | PHA (counts per minute of incorporated 3H-thymidine) ([2]; 6.3 μg/ml): 441580 Counts per minute | PHA (counts per minute of incorporated 3H-thymidine) ([2]; 12.5 μg/ml): 391633 Counts per minute | PHA (counts per minute of incorporated 3H-thymidine) ([2]; 25 μg/ml): 14425 Counts per minute | PHA (counts per minute of incorporated 3H-thymidine) ([2]; 50 μg/ml): 16984 Counts per minute | suppression of PHA stimulation of human PBL (in words) [2, 10]: suppressed | viability [3]: > 91% | viability ([4]; peripheral blood lymphocytes, 0.4 μg/ml, read-out: % Viability (% viable cells as measured by M.T.T. metabolism)): 115% | viability ([4]; peripheral blood lymphocytes, 1.6 μg/ml, read-out: % Viability (% viable cells as measured by M.T.T. metabolism)): 110% | viability ([4]; peripheral blood lymphocytes, 3.1 μg/ml, read-out: % Viability (% viable cells as measured by M.T.T. metabolism)): 94% | viability ([4]; peripheral blood lymphocytes, 6.3 μg/ml, read-out: % Viability (% viable cells as measured by M.T.T. metabolism)): 94% | viability ([4]; peripheral blood lymphocytes, 12.5 μg/ml, read-out: % Viability (% viable cells as measured by M.T.T. metabolism)): 94% | viability ([4]; peripheral blood lymphocytes, 25 μg/ml, read-out: % Viability (% viable cells as measured by M.T.T. metabolism)): 102% | viability ([4]; peripheral blood lymphocytes, 50 μg/ml, read-out: % Viability (% viable cells as measured by M.T.T. metabolism)): 204% | viability ([4]; peripheral blood lymphocytes, 50, 25, 12.5, 6.3, 3.1 and 1.6 μg/ml, read-out: viability in the human MLR): > 94% | CPM (counts per minute of incorporated 3H-thymidine) ([5]; 0.4 μg/ml): 64211 CPM | CPM (counts per minute of incorporated 3H-thymidine) ([5]; 0.8 μg/ml): 49509 CPM | CPM (counts per minute of incorporated 3H-thymidine) ([5]; 1.6 μg/ml): 26336 CPM | CPM (counts per minute of incorporated 3H-thymidine) ([5]; 3.1 μg/ml): 8532 CPM | CPM (counts per minute of incorporated 3H-thymidine) ([5]; 6.3 μg/ml): 4996 CPM | CPM (counts per minute of incorporated 3H-thymidine) ([5]; 12.5 μg/ml): 2091 CPM | CPM (counts per minute of incorporated 3H-thymidine) ([5]; 25 μg/ml): 1728 CPM | CPM (counts per minute of incorporated 3H-thymidine) ([5]; 50 μg/ml): 1932 CPM | immunosuppressive activity in the human MLR (in words) ([5]; 50, 25, 12.5, 6.3, 3.1 and 1.6 μg/ml): immunosuppressive | immunosuppressive activity in the murine MLR (in words) ([6]; 0.5 μg/ml): immunosuppressive | immunosuppressive activity in the murine MLR (in words) ([6]; 500, 50 and 5 μg/ml): exhibited immunosuppressive activity | activity at 0.5 µg/mL ([6]; Mus musculus, Splenocyte, 0.5 μg/ml, read-out: % MLR Control (percent of the control MLR response)): 18% | activity at 5 µg/mL ([6]; Mus musculus, Splenocyte, 5 μg/ml, read-out: % MLR Control (percent of the control MLR response)): 25% | activity at 50 µg/mL ([6]; Mus musculus, Splenocyte, 50 μg/ml, read-out: % MLR Control (percent of the control MLR response)): < 1% | activity at 500 µg/mL ([6]; Mus musculus, Splenocyte, 500 μg/ml, read-out: % MLR Control (percent of the control MLR response)): < 1% | Con A (counts per minute of incorporated 3H-thymidine) ([7]; 6.3 μg/ml): 299518 Counts per minute | Con A (counts per minute of incorporated 3H-thymidine) ([7]; 12.5 μg/ml): 213740 Counts per minute | Con A (counts per minute of incorporated 3H-thymidine) ([7]; 25 μg/ml): 11567 Counts per minute | Con A (counts per minute of incorporated 3H-thymidine) ([7]; 50 μg/ml): 10230 Counts per minute | suppression of Con A stimulation of human PBL (in words) [7, 10]: suppressed | toxicity in the murine assay (in words) ([8]; 0.5 μg/ml): no associated toxicity | toxicity in the murine assay (in words) ([8]; 500, 50 and 5 μg/ml): with associated toxicity | viability ([9]; 0.5 μg/ml): 151% | viability ([9]; 5 μg/ml): 68% | viability ([9]; 50 μg/ml): 26% | viability ([9]; 500 μg/ml): < 1%
